# According to patent US9908868B2, “Isoindolinone compounds as GPR119 modulators for the treatment of diabetes, obesity, dyslipidemia and related disorders” (SANOFI, priority 2014, dated 2018):
# Target: T1, human GPR119 (Homo sapiens, UniProt Q8TDV5)
# T1 construct: expressed in transfected cells
# T1 sequence (Q8TDV5 1-335): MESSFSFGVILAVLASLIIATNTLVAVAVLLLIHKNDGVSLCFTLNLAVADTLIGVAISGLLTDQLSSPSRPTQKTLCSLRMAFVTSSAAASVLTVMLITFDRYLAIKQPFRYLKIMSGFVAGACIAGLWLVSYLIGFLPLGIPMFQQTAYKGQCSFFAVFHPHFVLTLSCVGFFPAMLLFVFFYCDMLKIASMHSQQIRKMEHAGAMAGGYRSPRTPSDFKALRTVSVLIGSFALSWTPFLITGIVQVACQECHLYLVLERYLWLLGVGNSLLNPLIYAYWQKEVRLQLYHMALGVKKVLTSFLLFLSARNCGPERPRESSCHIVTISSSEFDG
# Assay: Functional cellular assay measuring GPR119-mediated cAMP release (HTRF) in HEK-293 cells stably expressing recombinant human GPR119
# Format: cell-based
# Settings: cAMP response, cell line expressing human GPR119, 30 minutes at room temperature
# Procedure, shortened: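 HEK-293 cells stably expressing recombinant human GPR119, suspended at 400000 cells/mL in HBSS/20 mM HEPES/0.1% BSA/2 mM IBMX, exposed to compound for 30 minutes at room temperature. cAMP detected by HTRF (665/620 nm ratio) after 1 h with reagents in lysis buffer. EC50 taken as concentration giving 50% of maximal activation.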
row,Structure (SMILES),EC50 [µM]
1,"CN(C)C(=O)CN1Cc2ccc(N3CC[C@@H](Oc4ccc(F)cc4)C3=O)cc2C1=O [Example 2-09, 2-[6-[(3R)-3-(4-fluorophenoxy)-2-oxo-pyrrolidin-1-yl]-1-oxo-isoindolin-2-yl]-N,N-dimethyl-acetamide]",0.739
2,"CN(C)C(=O)CN1Cc2ccc(N3CC[C@@H](Oc4ccc(Cl)nc4)C3=O)cc2C1=O [Example 2-10, 2-[6-[(3R)-3-[(6-chloro-3-pyridyl)oxy]-2-oxo-pyrrolidin-1-yl]-1-oxo-isoindolin-2-yl]-N,N-dimethyl-acetamide]",2.07
3,"CCC(=O)c1ccc(O[C@@H]2CCN(c3ccc4c(c3)C(=O)N(CC(=O)N(C)C)C4)C2=O)cc1 [Example 2-11, N,N-dimethyl-2-[1-oxo-6-[(3R)-2-oxo-3-(4-propanoylphenoxy)pyrrolidin-1-yl]isoindolin-2-yl]acetamide]",0.267
4,"CCCCC(=O)c1ccc(O[C@@H]2CCN(c3ccc4c(c3)C(=O)N(CC(=O)N(C)C)C4)C2=O)cc1 [Example 2-12, N,N-dimethyl-2-[1-oxo-6-[(3R)-2-oxo-3-(4-pentanoylphenoxy)pyrrolidin-1-yl]isoindolin-2-yl]acetamide]",0.044
5,"CCCC(=O)c1ccc(O[C@@H]2CCN(c3ccc4c(c3)C(=O)N(CC(=O)N(C)C)C4)C2=O)cc1 [Example 2-13, 2-[6-[(3R)-3-(4-butanoylphenoxy)-2-oxo-pyrrolidin-1-yl]-1-oxo-isoindolin-2-yl]-N,N-dimethyl-acetamide]",0.075
6,"CN(C)C(=O)CN1Cc2ccc(N3CC[C@@H](Oc4ccc(Oc5ccc(F)cc5)nc4)C3=O)cc2C1=O [Example 2-14, 2-[6-[(3R)-3-[[6-(4-fluorophenoxy)-3-pyridyl]oxy]-2-oxo-pyrrolidin-1-yl]-1-oxo-isoindolin-2-yl]-N,N-dimethyl-acetamide]",0.085
7,"CN(C)C(=O)CN1Cc2ccc(N3CC[C@@H](Oc4ccc(C(=O)c5ccc(F)cc5)cc4)C3=O)cc2C1=O [Example 2-15, 2-[6-[(3R)-3-[4-(4-fluorobenzoyl)phenoxy]-2-oxo-pyrrolidin-1-yl]-1-oxo-isoindolin-2-yl]-N,N-dimethyl-acetamide]",0.066
8,"CN(C)C(=O)CN1Cc2ccc(N3CC[C@@H](Oc4ccc(Oc5ccc(F)cc5)cc4)C3=O)cc2C1=O [Example 2-16, 2-[6-[(3R)-3-[4-(4-fluorophenoxy)phenoxy]-2-oxo-pyrrolidin-1-yl]-1-oxo-isoindolin-2-yl]-N,N-dimethyl-acetamide]",0.047
9,"CN(C)C(=O)CN1Cc2ccc(N3CC[C@@H](Oc4ccc(F)nc4)C3=O)cc2C1=O [Example 2-17, 2-[6-[(3R)-3-[(6-fluoro-3-pyridyl)oxy]-2-oxo-pyrrolidin-1-yl]-1-oxo-isoindolin-2-yl]-N,N-dimethyl-acetamide]",9.36
10,"CN(C)C(=O)CN1Cc2ccc(N3CC[C@@H](Oc4ccc(O[C@@H]5C[C@@H]6C[C@@H]6C5)nc4)C3=O)cc2C1=O [Example 2-18, 2-[6-[(3R)-3-[[6-[[(1S,5R)-3-bicyclo[3.1.0]hexanyl]oxy]-3-pyridyl]oxy]-2-oxo-pyrrolidin-1-yl]-1-oxo-isoindolin-2-yl]-N,N-dimethyl-acetamide]",0.074
11,"CN(C)C(=O)CN1Cc2ccc(N3CC[C@@H](Oc4ccc(SCC5CC5)nc4)C3=O)cc2C1=O [Example 2-19, 2-[6-[(3R)-3-[[6-(cyclopropylmethylsulfanyl)-3-pyridyl]oxy]-2-oxo-pyrrolidin-1-yl]-1-oxo-isoindolin-2-yl]-N,N-dimethyl-acetamide]",0.047
12,"CN(C)C(=O)CN1Cc2ccc(N3CC[C@@H](Oc4ccc(SC5CC5)nc4)C3=O)cc2C1=O [Example 2-20, 2-[6-[(3R)-3-[(6-cyclopropylsulfanyl-3-pyridyl)oxy]-2-oxo-pyrrolidin-1-yl]-1-oxo-isoindolin-2-yl]-N,N-dimethyl-acetamide]",0.233
13,"CN(C)C(=O)CN1Cc2ccc(N3CC[C@@H](Oc4ccc(C(=O)CC5CC5)cc4)C3=O)cc2C1=O [Example 2-21, 2-[6-[(3R)-3-[4-(2-cyclopropylacetyl)phenoxy]-2-oxo-pyrrolidin-1-yl]-1-oxo-isoindolin-2-yl]-N,N-dimethyl-acetamide]",0.072
14,"CN(C)C(=O)CN1Cc2ccc(N3CC[C@@H](Oc4ccc(SC(F)(F)F)cc4)C3=O)cc2C1=O [Example 2-22, N,N-dimethyl-2-[1-oxo-6-[(3R)-2-oxo-3-[4-(trifluoromethylsulfanyl)phenoxy]pyrrolidin-1-yl]isoindolin-2-yl]acetamide]",0.041
15,"CN(C)C(=O)CN1Cc2ccc(N3CC[C@@H](Oc4ccc(Oc5ccccn5)cc4)C3=O)cc2C1=O [Example 2-23, N,N-dimethyl-2-[1-oxo-6-[(3R)-2-oxo-3-[4-(2-pyridyloxy)phenoxy]pyrrolidin-1-yl]isoindolin-2-yl]acetamide]",0.261
16,"CN(C)C(=O)CN1Cc2ccc(N3CC[C@@H](Oc4ccc(N5CCOCC5)cc4)C3=O)cc2C1=O [Example 2-24, N,N-dimethyl-2-[6-[(3R)-3-(4-morpholinophenoxy)-2-oxo-pyrrolidin-1-yl]-1-oxo-isoindolin-2-yl]acetamide]",21
17,"CN(C)C(=O)CN1Cc2ccc(N3CC[C@@H](Oc4ccc(-n5cncn5)cc4)C3=O)cc2C1=O [Example 2-25, N,N-dimethyl-2-[1-oxo-6-[(3R)-2-oxo-3-[4-(1,2,4-triazol-1-yl)phenoxy]pyrrolidin-1-yl]isoindolin-2-yl]acetamide]",12
18,"CC(=O)N1CCN(c2ccc(O[C@@H]3CCN(c4ccc5c(c4)C(=O)N(CC(=O)N(C)C)C5)C3=O)cc2)CC1 [Example 2-26, 2-[6-[(3R)-3-[4-(4-acetylpiperazin-1-yl)phenoxy]-2-oxo-pyrrolidin-1-yl]-1-oxo-isoindolin-2-yl]-N,N-dimethyl-acetamide]",1.06
19,"CN(C)C(=O)CN1Cc2ccc(N3CC[C@@H](Oc4ccc(S(F)(F)(F)(F)F)cc4)C3=O)cc2C1=O [Example 2-27, N,N-dimethyl-2-[1-oxo-6-[(3R)-2-oxo-3-[4-(pentafluoro-λ{6}-sulfanyl)phenoxy]pyrrolidin-1-yl]isoindolin-2-yl]acetamide]",0.16
20,"CN(C)C(=O)CN1Cc2ccc(N3CC[C@@H](Oc4ccc(N5CCCC5=O)cc4)C3=O)cc2C1=O [Example 2-28, N,N-dimethyl-2-[1-oxo-6-[(3R)-2-oxo-3-[4-(2-oxopyrrolidin-1-yl)phenoxy]pyrrolidin-1-yl]isoindolin-2-yl]acetamide]",1.47
21,"CN(C)C(=O)CN1Cc2ccc(N3CC[C@@H](Oc4ccc(-c5nnco5)cc4)C3=O)cc2C1=O [Example 2-29, N,N-dimethyl-2-[6-[(3R)-3-[4-(1,3,4-oxadiazol-2-yl)phenoxy]-2-oxo-pyrrolidin-1-yl]-1-oxo-isoindolin-2-yl]acetamide]",3.39
22,"CN(C)C(=O)CN1Cc2ccc(N3CC[C@@H](Oc4ccc(OCC(F)(F)F)cc4)C3=O)cc2C1=O [Example 2-30, N,N-dimethyl-2-[1-oxo-6-[(3R)-2-oxo-3-[4-(2,2,2-trifluoroethoxy)phenoxy]pyrrolidin-1-yl]isoindolin-2-yl]acetamide]",0.082
23,"Cc1csc(-c2ccc(O[C@@H]3CCN(c4ccc5c(c4)C(=O)N(CC(=O)N(C)C)C5)C3=O)cc2)n1 [Example 2-31, N,N-dimethyl-2-[6-[(3R)-3-[4-(4-methylthiazol-2-yl)phenoxy]-2-oxo-pyrrolidin-1-yl]-1-oxo-isoindolin-2-yl]acetamide]",0.343
